In US20240025862A1, “SUBSTITUTED N-PHENYLURACILS AND SALTS THEREOF, AND USE THEREOF AS HERBICIDAL ACTIVE SUBSTANCES” (Bayer Aktiengesellschaft, priority 2020, published 2024):

Key:
Assay type in all cases: in vivo
[1] = test system: Abutilon theophrasti (ABUTH); assay: Post-emergence herbicidal action, greenhouse pot test; conditions: rated visually after about 3 weeks vs untreated controls, 100% = plants have died
How it was run: (§1)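 Greenhouse-grown weeds in sandy loam were sprayed post-emergence at the one-leaf stage, 2–3 weeks after sowing. Compounds were formulated as WP or EC in water with 0.5% additive at 600 l/ha, at rates of 20 g/ha or less. Visual rating after about 3 weeks used a scale from 0% (like untreated control) to 100% (plants dead).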

[2] = test system: Amaranthus retroflexus (AMARE); assay: as above; conditions: rated visually after about 3 weeks vs untreated controls, 100% = plants have died
How it was run: as §1

Avena fatua (AVEFA) = assay: as above; conditions: 20 g/ha, rated visually after about 3 weeks vs untreated controls, 100% = plants have died
How it was run: as §1

[3] = test system: Pharbitis purpurea (PHBPU); assay: as above
How it was run: as §1

[4] = test system: Polygonum convolvulus (POLCO); assay: as above
How it was run: as §1

Veronica persica (VERPE) = assay: as above
How it was run: as §1

Viola tricolor (VIOTR) = assay: as above
How it was run: as §1

[5] = test system: Alopecurus myosuroides (ALOMY); assay: Post-emergence herbicidal action, greenhouse pot test (also comparative test C); conditions: rated visually after about 3 weeks vs untreated controls, 100% = plants have died
How it was run: (§2)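 Greenhouse pot plants in sandy loam were sprayed post-emergence at the one-leaf stage (2–3 weeks after sowing) with WP or EC formulations plus 0.5% additive at 600 l/ha water. Activity was rated visually after about 3 weeks versus untreated controls (100% = dead, 0% = like control); rates were 20 g/ha or less, and 5 g/ha or less in the comparative test.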

[6] = test system: Echinochloa crus-galli (ECHCG); assay: as above
How it was run: as §2

[7] = test system: Matricaria inodora (MATIN); assay: as above
How it was run: as §2

Setaria viridis (SETVI) = assay: as above; conditions: for Post-emergence action against SETVI: 20 g/ha
How it was run: as §2

[8] = test system: Triticum aestivum (TRZAS); assay: Post-emergence crop plant compatibility, greenhouse pot test; conditions: vs untreated controls
How it was run: (§3)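 Greenhouse-grown crop plants sprayed post-emergence at the one-leaf stage with WP or EC formulations plus 0.5% additive, at 600 l/ha water. Damage rated visually after about 3 weeks versus untreated controls (0% = like control, 100% = dead); suffixes a/b/c denote different dosages.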

Oryza sativa (ORYSA) = assay: Post-emergence crop plant compatibility, greenhouse pot test (also comparative test C); conditions: for Post-emergence action against ORYSA (crop plant compatibility): vs untreated controls; for Post-emergence action against ORYSA in %: 20 g/ha, crop plant compatibility
How it was run: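 Rice and other crops sprayed post-emergence at one-leaf stage (2–3 weeks after sowing) with WP or EC formulations plus 0.5% additive at 600 l/ha water. Visual rating about 3 weeks later versus untreated controls (100% = dead, 0% = like control); suffixes a–c denote different doses.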

Zea mays (ZEAMX) = assay: Post-emergence crop plant compatibility, greenhouse pot test; conditions: 1.25 g/ha, vs untreated controls
How it was run: as §3

SMILES | Post-emergence action at 5 g/ha against ABUTH in % [1] | Post-emergence action at 20 g/ha against ABUTH in % [1] | Post-emergence action at 1.25 g/ha against AMARE in % [2] | Post-emergence action at 5 g/ha against AMARE in % [2] | Post-emergence action at 20 g/ha against AMARE in % [2] | Post-emergence action at 20 g/ha against AVEFA in % (Avena fatua (AVEFA)) | Post-emergence action against PHBPU in % ([3]; dosage 5 g/ha) | Post-emergence action against PHBPU in % ([3]; dosage 20 g/ha) | Post-emergence action against POLCO in % ([4]; dosage 20 g/ha) | Post-emergence action against VERPE (Veronica persica (VERPE); 5 g/ha) | Post-emergence action against VERPE (Veronica persica (VERPE); 20 g/ha) | Post-emergence action against VIOTR (Viola tricolor (VIOTR); 1.25 g/ha) | Post-emergence action against VIOTR (Viola tricolor (VIOTR); 5 g/ha) | Post-emergence action against VIOTR (Viola tricolor (VIOTR); 20 g/ha) | Post-emergence action at 5 g/ha against ALOMY in % [5] | Post-emergence action at 20 g/ha against ALOMY in % [5] | Post-emergence action against ECHCG in % ([6]; dosage 5 g/ha) | Post-emergence action against ECHCG in % ([6]; dosage 20 g/ha) | Post-emergence action against MATIN in % ([7]; dosage 5 g/ha) | Post-emergence action against MATIN in % ([7]; dosage 20 g/ha) | also measured
COCCOCCOC(=O)COc1ccccc1Oc1cc(-n2c(=O)cc(C(F)(F)F)n(C)c2=O)c(F)cc1Br [I.8-23] | 100% | 100% | 100% | 100% | 100% | 80% | 100% | 100% | 100% | 100% | 100% | 100% | 100% | 100% | 80% | 100% | 100% | 100% | 100% | 100% | Post-emergence action at 1.25 g/ha against ABUTH in % [1]: 100%; Post-emergence action against PHBPU in % ([3]; dosage 1.25 g/ha): 100%; Post-emergence action against POLCO in % ([4]; dosage 5 g/ha): 100%; Post-emergence action against VERPE (Veronica persica (VERPE); 1.25 g/ha): 80%; Post-emergence action against SETVI (Setaria viridis (SETVI)): 100%; Post-emergence action against SETVI in % (Setaria viridis (SETVI); dosage 1.25 g/ha): 100%; Post-emergence action against SETVI in % (Setaria viridis (SETVI); dosage 5 g/ha): 100%; Post-emergence action against TRZAS (crop plant compatibility) ([8]; 1.25 g/ha): 10%; Post-emergence action against TRZAS (crop plant compatibility) ([8]; 5 g/ha): 20%; Post-emergence action against ORYSA (crop plant compatibility) (Oryza sativa (ORYSA); 1.25 g/ha): 0%; Post-emergence action against ORYSA (crop plant compatibility) (Oryza sativa (ORYSA); 5 g/ha): 0%; Post-emergence action against ORYSA in % (Oryza sativa (ORYSA)): 20%
Cn1c(C(F)(F)F)cc(=O)n(-c2cc(Oc3ccccc3OCC(=O)OCc3cccnn3)c(Cl)cc2F)c1=O [I.7-291] | 100% | 100% | 100% | 100% | 100% | 100% | 100% | 100% | 100% | 100% | 100% | 100% | 100% | 100% | 80% | 100% | 100% | 100% | 100% | 100% | Post-emergence action at 1.25 g/ha against ABUTH in % [1]: 100%; Post-emergence action against PHBPU in % ([3]; dosage 1.25 g/ha): 100%; Post-emergence action against SETVI (Setaria viridis (SETVI)): 100%; Post-emergence action against SETVI in % (Setaria viridis (SETVI); dosage 1.25 g/ha): 100%; Post-emergence action against SETVI in % (Setaria viridis (SETVI); dosage 5 g/ha): 100%; Post-emergence action against TRZAS (crop plant compatibility) ([8]; 1.25 g/ha): 0%; Post-emergence action against TRZAS (crop plant compatibility) ([8]; 5 g/ha): 0%; Post-emergence action against ZEAMX (crop plant compatibility) (Zea mays (ZEAMX)): 10%; Post-emergence action against ORYSA (crop plant compatibility) (Oryza sativa (ORYSA); 1.25 g/ha): 20%
CCOCCOC(=O)COc1ccccc1Oc1cc(-n2c(=O)cc(C(F)(F)F)n(C)c2=O)c(F)cc1C#N [I.9-2] | 100% | 100% | 100% | 100% | 100% | 90% | 100% | 100% | 100% | 100% | 100% | 100% | 100% | 100% | 80% | 100% | 100% | 100% | 100% | 100% | Post-emergence action at 1.25 g/ha against ABUTH in % [1]: 100%; Post-emergence action against PHBPU in % ([3]; dosage 1.25 g/ha): 100%; Post-emergence action against POLCO in % ([4]; dosage 5 g/ha): 100%; Post-emergence action against VERPE (Veronica persica (VERPE); 1.25 g/ha): 100%; Post-emergence action at 1.25 g/ha against ECHCG in % ([6]; 1.25 g/ha, rated visually after about 3 weeks vs untreated controls, 100% = plants have died): 80%; Post-emergence action against SETVI (Setaria viridis (SETVI)): 100%; Post-emergence action against SETVI in % (Setaria viridis (SETVI); dosage 1.25 g/ha): 100%; Post-emergence action against SETVI in % (Setaria viridis (SETVI); dosage 5 g/ha): 100%; Post-emergence action against TRZAS (crop plant compatibility) ([8]; 1.25 g/ha): 20%; Post-emergence action against ORYSA (crop plant compatibility) (Oryza sativa (ORYSA); 1.25 g/ha): 0%
Cn1c(C(F)(F)F)cc(=O)n(-c2cc(Oc3ccccc3OCC(=O)OCC[N+](=O)[O-])c(Br)cc2F)c1=O [I.8-183] | 100% | 100% | 100% | 100% | 100% | 100% | 100% | 100% | 100% | 100% | 100% | 100% | 100% | 100% | 80% | 100% | 100% | 100% | 80% | 100% | Post-emergence action against POLCO in % ([4]; dosage 5 g/ha): 100%; Post-emergence action against SETVI (Setaria viridis (SETVI)): 100%; Post-emergence action against SETVI in % (Setaria viridis (SETVI); dosage 1.25 g/ha): 100%; Post-emergence action against SETVI in % (Setaria viridis (SETVI); dosage 5 g/ha): 100%; Post-emergence action against TRZAS (crop plant compatibility) ([8]; 1.25 g/ha): 0%; Post-emergence action against TRZAS (crop plant compatibility) ([8]; 5 g/ha): 20%; Post-emergence action against ORYSA (crop plant compatibility) (Oryza sativa (ORYSA); 1.25 g/ha): 0%; Post-emergence action against ORYSA (crop plant compatibility) (Oryza sativa (ORYSA); 5 g/ha): 0%; Post-emergence action against ORYSA in % (Oryza sativa (ORYSA)): 0%
